Values joined by “and” are separate entries in the source; they are usually repeats but may differ in a detail not shown here. Identical values can stand only once. “Also recorded” adds a separate entry of the source. Like-named read-outs stand apart in the source and are kept apart here. Each block holds one molecule with its values, some of them ahead of it.
Assays:
recombinant human EYA3 [1] = target: T1, recombinant human EYA3 (Homo sapiens, UniProt Q99504); experiment: pNPP hydrolysis by EYA3 (tyrosine phosphatase enzyme assay); format: biochemical; settings: for IC50: recombinant human EYA3, substrate pNPP, read-out: IC50 (95% confidence intervals), pNPP hydrolysis by EYA3
T1 construct: a splice variant of Q99504 corresponding to isoform 2 and missing residues 1 - 126; made in house
T1 sequence (Q99504 1-447 isoform Q99504-2): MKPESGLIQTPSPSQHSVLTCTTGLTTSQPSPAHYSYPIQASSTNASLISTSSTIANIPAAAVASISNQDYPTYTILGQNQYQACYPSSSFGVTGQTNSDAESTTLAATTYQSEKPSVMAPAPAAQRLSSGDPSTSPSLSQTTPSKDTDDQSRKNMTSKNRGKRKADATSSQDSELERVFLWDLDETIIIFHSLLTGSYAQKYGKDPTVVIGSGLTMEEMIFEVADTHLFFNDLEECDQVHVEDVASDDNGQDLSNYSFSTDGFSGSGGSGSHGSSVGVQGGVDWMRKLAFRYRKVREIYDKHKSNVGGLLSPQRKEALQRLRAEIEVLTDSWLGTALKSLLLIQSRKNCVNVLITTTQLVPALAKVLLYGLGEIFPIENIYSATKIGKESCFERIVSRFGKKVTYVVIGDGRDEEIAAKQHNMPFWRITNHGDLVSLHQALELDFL
Experimental: Purification of recombinant EYA3 has been reported previously. Assays using the colorimetric substrate p-nitrophenylphosphate were conducted as previously reported.
Enzymatic assays were conducted using recombinant human EYA3 (a splice variant of Q99504 corresponding to isoform 2 and missing residues 1 - 126) purified as described. The chromogenic substrate para-nitrophenylphosphate (pNPP) was used to measure catalytic activity of EYA3. […] To assay potential EYA inhibitors, the compounds were pre-incubated with EYA3, pNPP added, and the formation of the p-nitrophenolate product measured. […] In addition, an ex vivo examination of sprouting angiogenesis was conducted using the aortic ring assay.

[2] = cited from earlier work; for half-life: as previously reported; for maximal plasma concentration: single oral dose of 100 mg
HUVECs [3] = experiment: HUVEC proliferation / cell viability assay (WST-8); format: cell-based, human; settings: for effect on cell viability / proliferation: 72 hours
Experimental: 75% confluent HUVECs (<passage 8) were washed with PBS and trypsinized, deactivated with 10% FBS, spun down and counted. 1000 cells/well were seeded in triplicate in 100 μl EGM-2 complete medium either with inhibitors (in 0.2% DMSO) or vehicle alone (0.2% DMSO). After 0 hrs, 24 hrs, 48 hrs, 72 hrs of incubation at 37°C in […] 10 μl WST-8 was added to each well and incubated for 2 hours in the dark, at 37°C, […]. Absorption was read at 450 nm. Fold change was calculated as the ratio of the OD450 at the experimental time point and at the start of the experiment (0 hours).
A cell viability assay was conducted over 3 days of exposure to the test compounds in order to assess both the possibility of immediate cellular toxicity as well as any effect on cell proliferation. HUVECs were seeded and equilibrated for 24 hours before addition of the test compounds. Cellular metabolic activity was measured at defined time-points using the tetrazolium dye WST-8 to quantify NAD(P)H-dependent cellular oxidoreductase enzyme activity.
Figure 2 Proliferation of HUVECs in the presence of 7.5 μM test compounds. Cell viability was measured at 72 hours post-seeding. Asterisk represents significant differences between groups (*** P<0.001, * P<0.05).

HUVECs [4] = settings: cited from earlier work
recombinant human EYA3 [5] = target: T1, recombinant human EYA3; settings: recombinant EYA3, substrate pNPP; reported previously; read-out: IC50 (95% confidence intervals), pNPP hydrolysis by EYA3; cited from earlier work
HUVECs [6] = experiment: Scratch wound healing (cell migration) assay; format: cell-based, human
Experimental: 10^5 HUVECs/well were seeded on 24-well plates and cultured until they reached confluency in EGM-2. The monolayers were then scratch-wounded using a 200 μl pipette tip, washed with PBS, and incubated with EGM-2 complete medium and either EYA Inhibitors or vehicle control (0.2% DMSO). Wounds were photographed immediately upon insult, and at various time-points following wounding using a phase-contrast microscope. The number of cells that migrated into the cleared area was counted using the Cell Counter function of ImageJ [20].
The effect of the test compounds on cell migration was assessed using a scratch wound healing assay and HUVEC cells. Cells were plated and grown to confluency. Scratch wounds were made using a sterile pipette tip, the medium changed to remove any cellular debris, and fresh medium with either vehicle or test compound was introduced. The number of cells that migrated into the cleared space was counted 22 hours later. […] Previous experiments had shown a role for EYA3 in trans-well migration of HUVECs. […] Lentiviral shRNA targeting EYA3 in HUVECs led to greater than 80% reduction in EYA3 protein levels (Figure 4A).
Figure 3 Lateral migration of HUVECs in the presence of test compounds. […] (B) Number of cells that migrate into the wounded area was counted using the Cell Counter functionality of ImageJ. […]

[7] = test system: aortic ring explants from C57BL/6 mice; experiment: Aortic ring sprouting assay (ex vivo); settings: mouse aortic rings in collagen, initially 7.5 μM, 10-day treatment
Experimental: The preparation of rat collagen and the aortic ring assay were carried out as previously described. Briefly, aortic ring explants were obtained from C57BL/6 mice aged 4 to 6 weeks and cultured at 37°C in a humidified incubator under a 5% CO2 atmosphere in serum-free EBM. Within 30 minutes of dissection the rings were placed in a 3D collagen matrix supported by a UV-sterilized nylon mesh ring with inner and outer diameters of 3 mm and 5.6 mm, respectively. The matrix was prepared by mixing 8 parts of collagen solution, 1 part of 10x M199 and 1 part of 23.4mg/ml NaHCO3. After another 30 min incubation at 37°C, the assembly was transferred into a well of 96-well plate filled with 150 μl of culture medium; either control medium consisting of 0.1% DMSO in EBM, 2.5% FBS, penicillin/streptomycin and 20ng/ml VEGF165 or the test inhibitor dissolved in the control medium. Each compound was applied over a 10-day period with medium changes every two days. […]
This assay allows for analysis of cell proliferation, migration, tube formation, micro-vessel branching, and perivascular recruitment. […] All the test compounds were initially assayed at 7.5 μM and the number of branch-points counted. […]
Figure 6 Effect of test compounds on aortic ring sprouting. […] (B) Quantitation of the number of sprouts per ring with each bar representing at least 4 rings. *** P<0.001, ** P<0.01, * P<0.05, ns not significant).

HUVECs [8] = experiment: Tubulogenesis assay on growth-factor reduced Matrigel; format: cell-based, human
Experimental: Growth factor reduced Matrigel was thawed overnight on ice at 4°C. 40 μl Matrigel was added to each well of a 96-well plate and incubated for 30 mins to polymerize. 10,000 cells in 100 μl EGM-2 complete medium with either inhibitors or vehicle control (0.2% DMSO) were added to each well. Plates were incubated for 24 hours at 37°C, 5% CO2 and then photographed at 5X magnification. Tube length was measured using the NeuronJ plugin [21] for the NIH ImageJ software.
Primary endothelial cells (ECs) on basement membrane rapidly attach, align themselves and form capillary-like tubules with lumens and tight cell-cell contacts. […] To better understand the stage in matrigel tube-formation affected by 6OH-BBR we followed cells plated on growth-factor reduced matrigel and treated with either vehicle or 6OH-BBR (Figure 5C). Differences become apparent within the first two hours and are clearly visible at the 6-hour time-point. The ECs are much less organized in the presence of 6OH-BBR.
(A) Representative phase-contrast images of HUVECs plated on growth-factor reduced Matrigel in the presence of the indicated doses of test compounds, photographed 16 hours after plating. (B) Quantitation of the number of tube-like structures formed by HUVECs in the presence of test compounds. The number of tubes was measured using NeuronJ. […]

[9] = set-up: method as in PMID 22398967; settings: cited from earlier work

- IC50 (recombinant human EYA3 [1]): 49.4 µM
Structure (SMILES): CCc1oc2ccc(O)cc2c1C(=O)c1cc(Br)c(O)c(Br)c1 [Compound 5OH-BBR, 5-hydroxy benzbromaorne]

- IC50 (recombinant human EYA3 [1]): > 150 µM
Structure (SMILES): CCc1oc2ccc(O)cc2c1C(=O)c1ccc(O)cc1 [Compound 5OH-BZ]

- IC50 (recombinant human EYA3 [1]): 135 µM
Structure (SMILES): Cc1oc2ccccc2c1C(=O)c1ccc(O)cc1 [DMBZ]

- IC50 (recombinant human EYA3 [1]): 3.1 µM
Structure (SMILES): CCCCc1oc2ccccc2c1C(=O)c1cc(I)c(O)c(I)c1 [ODAA]
- inhibition of cell migration (in words) (HUVECs [6]): relatively weak inhibitor
- effect on cell viability / proliferation (HUVECs [3]; 7.5 μM test compound): small but significant positive effect on cell proliferation
- inhibition of tube formation (in words) (HUVECs [8]): relatively weak inhibitor
- fraction bound to plasma protein [9]: ~ 99.9%

- IC50 (recombinant human EYA3 [1]): 16.4 µM
Structure (SMILES): CC(O)CCc1oc2ccccc2c1C(=O)c1cc(I)c(O)c(I)c1 (centres unmarked) [OH-ODAA]

More lines, now with the values behind:

Structure (SMILES): CC(O)c1oc2ccccc2c1C(=O)c1cc(Br)c(O)c(Br)c1 (centres unmarked) [1’OH-BBR, 1’-hydroxybenzbromarone]
- IC50 (recombinant human EYA3 [1]): 52.5 µM

Structure (SMILES): CCc1oc2ccccc2c1C(=O)c1cc(Br)c(O)c(Br)c1 [BBR, Benzbromarone]
- half-life [2]: 3 h
- maximal plasma concentration ([2]; rapid eliminators): 3.9 μg/ml and ~ 9.2 μM
- maximal plasma concentration ([2]; slow eliminator): 9.17 μg/ml and ~ 21.8 μM
- effect on cell viability / proliferation (HUVECs [3]; 7.5 μM test compound): reduced cell viability; also recorded: significant inhibition of cell proliferation
- effect on proliferation of HUVECs in the first 24 hours (HUVECs [4]): does not influence proliferation

Structure (SMILES): CCc1oc2ccccc2c1C(=O)c1ccc(O)cc1 [BZ, Benzarone, reference compound]
- IC50 (recombinant human EYA3 [5]): 17.5 µM
- effect on cell viability / proliferation (HUVECs [3]; 7.5 μM test compound): reduced cell viability; also recorded: significant inhibition of cell proliferation
- effect on proliferation of HUVECs in the first 24 hours (HUVECs [4]): does not influence proliferation

Structure (SMILES): Cc1oc2ccccc2c1C(=O)c1cc(I)c(O)c(I)c1 [BZI]
- IC50 (recombinant human EYA3 [1]): 8.9 µM

Structure (SMILES): CCc1oc2cc(O)ccc2c1C(=O)c1cc(Br)c(O)c(Br)c1 [Compound 6OH-BBR, 6-hydroxybenzbromarone]
- half-life [2]: 30 h
- reduction of cell migration (HUVECs [6]; 7.5 μM test compound, 22 hours after wounding): ~80%
- attenuation of aortic ring sprouting (in words) [7]: most potent inhibitor
- reduction in cell proliferation (HUVECs [3]; 7.5 μM test compound, 72 hours post-seeding): over 50%
- effect on cell proliferation at the 24-hour time-point (HUVECs [3]; 24 hours): attenuated cell proliferation
- inhibition of tube formation (in words) (HUVECs [8]): much stronger inhibitory effect than BZ
- IC50 relative to BBR (recombinant human EYA3 [1]; EYA3 inhibition in vitro): over twice
- IC50 (recombinant human EYA3 [1]): 21.5 µM

Structure (SMILES): Cc1oc2ccccc2c1C(=O)c1ccc(O)c(I)c1 [DIBZI]
- effect on cell viability / proliferation (HUVECs [3]; 7.5 μM test compound): small but significant positive effect on cell proliferation
- IC50 (recombinant human EYA3 [1]): 20.5 µM

— publication PMC3867503 (PLoS ONE, 2013)
